{"source": "paper PMC12146746", "about": "(Proceedings of the National Academy of Sciences of the …, 2025)", "target": "ceDCR-1/DRH-1/RDE-4 (Caenorhabditis elegans, UniProt G5EDI8)", "sequence (G5EDI8 1-1037)": "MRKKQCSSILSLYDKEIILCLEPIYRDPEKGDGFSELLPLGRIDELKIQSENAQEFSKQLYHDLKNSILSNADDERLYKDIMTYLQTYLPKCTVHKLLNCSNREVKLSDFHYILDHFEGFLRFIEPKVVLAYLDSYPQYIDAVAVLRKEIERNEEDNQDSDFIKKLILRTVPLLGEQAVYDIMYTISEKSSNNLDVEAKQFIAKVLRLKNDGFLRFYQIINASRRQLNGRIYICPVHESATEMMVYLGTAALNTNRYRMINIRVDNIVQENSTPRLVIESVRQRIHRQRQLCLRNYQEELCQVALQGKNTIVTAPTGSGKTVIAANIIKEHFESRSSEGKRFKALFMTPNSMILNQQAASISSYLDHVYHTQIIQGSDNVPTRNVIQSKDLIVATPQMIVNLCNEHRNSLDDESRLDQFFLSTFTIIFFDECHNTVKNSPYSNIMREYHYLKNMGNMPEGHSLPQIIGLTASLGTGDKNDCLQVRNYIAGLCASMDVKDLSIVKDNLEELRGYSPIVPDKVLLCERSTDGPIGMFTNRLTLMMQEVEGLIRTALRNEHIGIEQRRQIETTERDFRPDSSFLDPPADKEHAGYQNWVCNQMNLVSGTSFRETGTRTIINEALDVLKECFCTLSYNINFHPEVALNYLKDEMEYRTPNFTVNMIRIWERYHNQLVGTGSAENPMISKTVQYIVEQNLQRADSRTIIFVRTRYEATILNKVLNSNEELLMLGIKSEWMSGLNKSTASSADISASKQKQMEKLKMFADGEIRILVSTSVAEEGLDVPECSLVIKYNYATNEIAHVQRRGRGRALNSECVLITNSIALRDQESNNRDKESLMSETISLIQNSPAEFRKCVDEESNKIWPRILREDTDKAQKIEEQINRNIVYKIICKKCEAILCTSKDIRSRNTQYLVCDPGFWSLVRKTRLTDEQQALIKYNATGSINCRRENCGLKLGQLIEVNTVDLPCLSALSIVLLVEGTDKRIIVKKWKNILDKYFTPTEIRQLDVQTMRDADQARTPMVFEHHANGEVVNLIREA", "sequence (P34529 whole entry partner)": "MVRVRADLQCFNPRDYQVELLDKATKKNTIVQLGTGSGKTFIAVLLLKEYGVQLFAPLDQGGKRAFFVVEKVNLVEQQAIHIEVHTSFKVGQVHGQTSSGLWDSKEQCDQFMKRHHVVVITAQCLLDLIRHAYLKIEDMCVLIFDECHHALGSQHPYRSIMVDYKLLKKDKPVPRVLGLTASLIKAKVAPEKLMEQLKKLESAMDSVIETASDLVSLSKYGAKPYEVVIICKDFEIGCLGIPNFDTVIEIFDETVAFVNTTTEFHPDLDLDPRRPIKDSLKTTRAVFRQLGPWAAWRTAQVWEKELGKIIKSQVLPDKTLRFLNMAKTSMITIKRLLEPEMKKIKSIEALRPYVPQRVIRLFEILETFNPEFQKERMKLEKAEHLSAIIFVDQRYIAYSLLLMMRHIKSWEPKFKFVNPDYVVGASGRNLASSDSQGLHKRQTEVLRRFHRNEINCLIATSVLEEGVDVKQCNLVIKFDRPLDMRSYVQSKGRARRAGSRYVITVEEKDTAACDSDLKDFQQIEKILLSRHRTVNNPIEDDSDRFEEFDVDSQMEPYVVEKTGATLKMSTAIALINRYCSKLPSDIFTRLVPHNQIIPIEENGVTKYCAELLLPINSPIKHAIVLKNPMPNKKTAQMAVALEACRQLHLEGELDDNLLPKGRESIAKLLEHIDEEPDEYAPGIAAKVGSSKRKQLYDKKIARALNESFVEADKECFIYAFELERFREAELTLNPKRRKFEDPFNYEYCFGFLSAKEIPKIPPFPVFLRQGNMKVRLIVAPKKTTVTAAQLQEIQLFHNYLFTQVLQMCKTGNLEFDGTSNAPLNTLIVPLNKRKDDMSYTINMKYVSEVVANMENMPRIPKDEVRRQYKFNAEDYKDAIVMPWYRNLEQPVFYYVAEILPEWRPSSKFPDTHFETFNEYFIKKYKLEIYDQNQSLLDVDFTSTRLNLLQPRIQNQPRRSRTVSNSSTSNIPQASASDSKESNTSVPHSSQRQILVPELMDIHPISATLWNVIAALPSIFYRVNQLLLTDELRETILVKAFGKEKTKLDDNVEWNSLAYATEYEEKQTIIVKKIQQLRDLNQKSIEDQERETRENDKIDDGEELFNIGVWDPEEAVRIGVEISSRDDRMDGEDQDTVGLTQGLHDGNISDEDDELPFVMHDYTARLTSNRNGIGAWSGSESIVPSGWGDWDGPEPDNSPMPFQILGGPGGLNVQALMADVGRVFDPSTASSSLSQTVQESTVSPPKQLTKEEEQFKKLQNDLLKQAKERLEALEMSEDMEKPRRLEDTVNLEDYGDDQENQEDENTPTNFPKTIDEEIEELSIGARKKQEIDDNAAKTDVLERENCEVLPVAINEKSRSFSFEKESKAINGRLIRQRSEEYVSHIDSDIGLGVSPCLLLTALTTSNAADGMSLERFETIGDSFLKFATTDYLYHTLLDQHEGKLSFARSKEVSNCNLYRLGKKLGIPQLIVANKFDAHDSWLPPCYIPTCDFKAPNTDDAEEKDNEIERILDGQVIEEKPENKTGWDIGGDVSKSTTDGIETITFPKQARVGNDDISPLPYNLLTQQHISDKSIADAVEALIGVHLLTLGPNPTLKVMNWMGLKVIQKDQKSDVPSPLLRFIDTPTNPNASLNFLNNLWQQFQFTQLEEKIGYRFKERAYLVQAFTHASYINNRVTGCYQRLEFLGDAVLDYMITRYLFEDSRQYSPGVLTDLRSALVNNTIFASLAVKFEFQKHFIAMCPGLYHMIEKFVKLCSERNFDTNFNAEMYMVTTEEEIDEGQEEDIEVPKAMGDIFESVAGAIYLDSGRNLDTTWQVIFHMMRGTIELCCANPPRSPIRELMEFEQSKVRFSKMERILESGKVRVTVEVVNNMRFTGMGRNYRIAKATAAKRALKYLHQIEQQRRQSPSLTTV", "sequence (G5EBF5 1-385 partner)": "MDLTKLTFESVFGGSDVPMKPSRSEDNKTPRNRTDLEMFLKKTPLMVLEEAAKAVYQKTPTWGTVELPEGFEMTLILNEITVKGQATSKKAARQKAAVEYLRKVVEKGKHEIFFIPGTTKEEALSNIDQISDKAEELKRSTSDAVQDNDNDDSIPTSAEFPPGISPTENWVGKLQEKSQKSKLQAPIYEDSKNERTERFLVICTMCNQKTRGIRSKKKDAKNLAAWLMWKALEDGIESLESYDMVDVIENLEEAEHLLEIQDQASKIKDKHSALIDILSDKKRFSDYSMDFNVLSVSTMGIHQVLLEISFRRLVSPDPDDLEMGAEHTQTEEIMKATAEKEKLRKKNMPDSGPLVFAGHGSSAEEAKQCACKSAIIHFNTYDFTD", "details": "5 mM ATP, BLT 42-bp dsRNA with deoxynucleotides", "data": [{"smiles": "Nc1ncnc2c1ncn2[C@@H]1O[C@H](COP(=O)(O)OP(=O)(O)OP(=O)(O)O)[C@@H](O)[C@H]1O", "note": "[ATP]", "values": [{"measurement": "streptavidin-displacement (ATP-dependent translocation)", "result": "Wildtype C. elegans antiviral complex showed ATP-dependent streptavidin displacement on this substrate"}]}]}
